# Assay results as given in ChEMBL document CHEMBL3507680, “University of Dundee, Gates Library screen for HepG2 cell viability”.
# Assay: Human HepG2 cell viability assay in 384 well format
# Format: toxicity, cell-based
# Set-up: dose 125 nL, time 70.5 hour; cytotoxicity at 70.5 h: concentration not given beside the values
# Conditions: HepG2 cells, read-out: Inhibition
row,SMILES,cytotoxicity at 70.5 h
1,CN1CCCCc2c1nc1c(c2N)CCCC1,-5.71%
2,Cc1noc([C@H]2C[C@H]3OCC[C@H]3N(S(C)(=O)=O)C2)n1,3.17%
3,CCS(=O)(=O)N1C[C@H](c2nc(C)no2)C[C@H]2OCC[C@H]21,5.21%
4,CCOCC1CN(Cc2ccc3c(c2)OCO3)Cc2nccn2C1 (stereo unspecified),0.869%
5,COc1cc(N2C[C@H]3OCC[C@H]3[C@H](C(=O)N3CCCC3)C2)ncn1,27.7%
6,NC(=O)N1CC[C@@H]2O[C@H](COCC(=O)N3CCCC3)CC[C@@H]21,-0.223%
7,Cc1csc(CN2CC[C@H]3C[C@@H](c4nc(C)no4)O[C@@H]3C2)n1,-7.69%
8,COCCNC(=O)[C@@H]1CN(c2cc(OC)ncn2)C[C@H]2OCC[C@H]21,-7.76%
9,COCCN1C(=O)C[C@@H]2[C@H]1CCN2C(=O)c1ccc[nH]1,-5.24%
10,CS(=O)(=O)N1CCOCC2(CCN(C(=O)c3ccco3)CC2)C1,-8.61%
11,Cc1ccc(C(=O)N2CCC3(CC2)COCCN(S(C)(=O)=O)C3)cc1C,-6.37%
12,Cc1ncsc1CN1C[C@H](C(=O)NC2CCCC2)[C@@H]2CCO[C@@H]2C1,-1.79%
13,Cc1csc(CN2CC[C@H]3C[C@@H](c4nnc(C)[nH]4)O[C@@H]3C2)n1,0.739%
14,c1cc(N2CCC3(COCc4cnc(NCC5CC5)nc43)C2)ncn1 (stereo unspecified),32.2%
15,COC[C@@]12CCO[C@@H]1CCN(C(=O)c1ccc(F)c(F)c1)C2,0.0264%
16,O=C(c1ccco1)N1CCC[C@]2(C[C@H](Oc3ncccc3F)CO2)C1,-1.08%
17,COC[C@@]12CCO[C@@H]1CCN(C(=O)Cc1cccc(F)c1)C2,2.86%
18,Cc1nnc(N2CCCC3(CN(Cc4nccn4C)CCO3)C2)o1 (stereo unspecified),-0.85%
19,CCN1CC2(CC1=O)CN(C(=O)c1ccco1)CCN(C(=O)C(C)C)C2 (stereo unspecified),0.454%
20,c1cc(-c2ccc3c(c2)CCC32CCN(c3nncs3)CC2)co1,-9.51%
21,c1ccc(CN2CCC3(COCc4cnc(NCC5CC5)nc43)C2)cc1 (stereo unspecified),-3.62%
22,Cn1cc(N2CCC3(CCN(C(=O)c4cccn4C)C3)C2=O)cn1 (stereo unspecified),-6.34%
23,Cc1nn(C)cc1Cn1cc(Cl)c(N)n1,-1.77%

row,SMILES,cytotoxicity at 70.5 h
1,Cc1cc(OCc2ccc(C(=O)O)s2)ccc1Cl,-0.232%
2,O=C(O)c1ccc(COc2cccc(Cl)c2)s1,-5.91%
3,CCn1nc(C)c(CN2CCNCC2)c1C,-5.76%
4,Cc1noc2nc(C3CC3)c(Cl)c(C(=O)O)c12,-7.07%
5,Cc1ccc(Cn2nc(C)c3c(C(=O)O)c(Cl)c(C4CC4)nc32)cc1,-4.45%
6,Cc1nn(C)c2nc(C3CC3)c(Cl)c(C(=O)O)c12,0.618%
7,COC(=O)Cn1c(=O)cc(C(F)F)c2c(C)nn(CC(F)F)c21,-8.33%
8,Cc1nn(CC(F)F)c2c1c(C(F)F)cc(=O)n2CC(=O)O,23.6%
9,CCn1ncc(-c2cc(C(F)(F)F)nc(N3CCC(N)CC3)n2)c1C,8.37%
10,O=C(O)CCC(=O)Nc1nn(Cc2ccc(F)cc2)cc1Cl,27.9%
11,Cc1nn(COc2cccc(F)c2)c(C)c1NC(=O)C1CC1,2.57%
12,Cc1c(CCC(=O)Nc2ccc(Br)cn2)cnn1C,-5.19%
13,Cc1c(CCC(=O)Nc2ccc(Cl)cn2)cnn1C,-1.57%
14,CCN(CC)C(=O)c1ccn(COc2c(Cl)cccc2Cl)n1,-10.4%
15,CC(C)NC(=O)c1ccn(COc2c(Cl)cccc2Cl)n1,-8.01%
16,CCn1cc(CN(C)S(=O)(=O)c2ccccc2)cn1,-6.94%
17,Cc1cc(C(=O)NCc2ccco2)nn1C,-11.3%
18,Cc1ccc(CNC(=O)c2cc(C)n(C)n2)o1,-8.67%
19,CCN(CC)C(=O)c1ccn(COc2cccc(Cl)c2Cl)n1,-2.31%
20,CCn1cc(CNC(=O)C2CCCC2)cn1,-17.8%
21,CC1CCN(C(=O)C(C)Oc2ccc3c(c2)OCO3)CC1 (stereo unspecified),8.31%
22,CC(C(=O)N1CCOCC1)n1cc(Br)cn1 (stereo unspecified),12.3%
23,CC(=O)Nc1ncc(S(=O)(=O)Nc2cccc(F)c2)s1,-8.84%

row,SMILES,cytotoxicity at 70.5 h
1,COc1ccc(NS(=O)(=O)c2cnc(NC(C)=O)s2)cc1,-8.08%
2,CC(=O)Nc1ncc(S(=O)(=O)Nc2cccc(O)c2)s1,-13.4%
3,CC(=O)Nc1ncc(S(=O)(=O)Nc2ccc3c(c2)OCCO3)s1,-7.83%
4,CSc1nc(N)c2c(n1)N=C1COC(O)=C1C2c1cccc(Cl)c1 (stereo unspecified),47.4%
5,Cc1ccc(NC(=O)Nc2c(O)oc3ccccc3c2=O)cc1C,-5.07%
6,O=c1c2cc3c(cc2nnn1Cc1ccccc1)OCCO3,-2.96%
7,CCCNC(=O)c1nn(CC)cc1NC(=O)c1cn(C)nc1C,-12.7%
8,Cc1nn(C)c2c(=O)n(Cc3ccc(F)cc3)nnc12,-7.56%
9,CCc1nc(NCCn2cccn2)c2c(n1)c(C)nn2C,-7.14%
10,Cc1nn(C)c2c(NCc3ccccn3)nc(C(C)C)nc12,20.7%
11,Cc1nn(C)c2c(=O)n(C)c(NCC3CCCO3)nc12 (stereo unspecified),-3.29%
12,COc1ccc(OC)c(Nc2nc3c(C)nn(C)c3c(=O)n2C)c1,7.63%
13,CCn1c(NCc2ccccc2)nc2c(C)nn(C)c2c1=O,-9.48%
14,c1ccc(OCCNCc2cccs2)nc1,7.79%
15,Fc1cccc(Cl)c1CNCCOc1ccccn1,-20.9%
16,Cc1ccsc1CNCCCOc1ccccn1,1.65%
17,COc1ccc(CNc2n[nH]c(C)n2)cc1,-11.8%
18,Cc1cccc(CNc2n[nH]c(C)n2)c1,-5.26%
19,Cc1cc(C)cc(N2CC(c3nnc(N)s3)CC2=O)c1 (stereo unspecified),3.73%
20,Cc1c(Cl)cccc1N1CC(c2nnc(N)s2)CC1=O (stereo unspecified),5.68%
21,CCOC(=O)c1sc(NC(=O)CCCC(=O)O)c(C#N)c1C,-4.89%
22,CCn1cc(S(=O)(=O)N2CCC(C)CC2)c(C)n1,-14%
23,O=S(=O)(c1ccc(F)cc1)n1cc(Cl)cn1,-10.6%

row,SMILES,cytotoxicity at 70.5 h
1,O=C(c1c(F)cccc1F)N1CCOCC1,18.9%
2,CCN(Cc1ccncc1)S(C)(=O)=O,27.1%
3,CCN1CCN(S(=O)(=O)c2cc(C)c(Cl)cc2C)CC1,2.46%
4,Cc1ccc(CN2CCN(CC(=O)Nc3ccc4nsnc4c3)CC2)o1,-5.71%
5,CC(C)CCN1CCN(CC(=O)Nc2ccc3nsnc3c2)CC1,-11.4%
6,CC1CCC2(CC1)NC(=O)c1cc(Br)ccc1-n1nnnc12 (stereo unspecified),-4.82%
7,Cc1cccc(C)c1-n1nnnc1C1(NCc2ccco2)CCCC1,-6.25%
8,COc1ccc(-n2nnnc2C(C)(C)Nc2ccc(C)cc2C)cc1,40.2%
9,Cc1nc(N2CCCC2)ncc1-c1cc(O)nc(N2CCCCC2)n1,-10.4%
10,CC(C)C(=O)N1CCC(C)(c2cc(O)[nH]n2)CC1,20%
11,Cc1cc(CN(C)Cc2ccccc2N2CCCCC2)n[nH]1,1.54%
12,COCC(=O)NC[C@H]1CC[C@H](c2nnc(-c3ccncc3)o2)CC1,15.8%
13,O=C(NC[C@H]1CC[C@H](c2nnc(-c3cccnc3)o2)CC1)C1CC1,6.18%
14,Cc1cncc(C2CCN(C(=O)c3ccc(-n4cccn4)nc3)CC2)n1,-2.8%
15,COc1ccc2[nH]cc(C(=O)N3C[C@@H](O)[C@H](N4CCCC4)C3)c2c1,17.1%
16,CN1CCC(c2cccc(-c3ccc(C(=O)O)cc3)n2)CC1,-2.41%
17,O=C1COC2(CCN(Cc3ccoc3)CC2)CN1c1ccccc1,5.1%
18,O=C1COC2(CCN(Cc3cccs3)CC2)CN1c1ccsc1,1.63%
19,COCCNC(=O)[C@H]1CN(Cc2cccs2)C[C@H]2OCC[C@@H]12,25.4%
20,O=C1C[C@H]2[C@@H](CCN2C(=O)c2ccc[nH]2)N1CCN1CCCC1,-2.17%
21,Cn1cc(CN2CCC3(CC2)CCN(C(=O)c2cscn2)C3)cn1,-3.37%
22,O=C(c1cccnc1)N1CCC2(CC1)COCCN(c1ncccn1)C2,-9.03%
23,O=C(c1ccncn1)N1CCC[C@]2(C[C@H](Oc3ncccc3F)CO2)C1,23.2%

row,SMILES,cytotoxicity at 70.5 h
1,O=C(c1ncccn1)N1CCC[C@]2(C[C@@H](Oc3ncccc3F)CO2)C1,21.8%
2,O=C(Cc1ccsc1)N1C[C@@H]2OCCN(CC3CCCO3)[C@@H]2C1 (stereo partly specified),7.05%
3,COCC(=O)N1C[C@@H]2CCCO[C@@H]2[C@H](N(C)Cc2ccco2)C1,-3.25%
4,O=C(Cc1ccccc1)N1C[C@@H]2OCCN(CC3CCCO3)[C@@H]2C1 (stereo partly specified),-6.14%
5,O=C(N[C@@H]1CN[C@@H]2CCCO[C@@H]21)c1cscn1,-3.45%
6,CN(Cc1ccco1)[C@@H]1CN(C(=O)c2cnccn2)C[C@@H]2CCCO[C@@H]21,-2.85%
7,Cc1cccc(C(=O)N2CCC3(CCN(c4cnn(C)c4)C3=O)C2)n1 (stereo unspecified),-1.73%
8,CN(C)S(=O)(=O)N1CCO[C@H]2[C@H](Oc3cccnc3)CC[C@@H]21,-3.81%
9,Cc1nc(CO[C@H]2CN(Cc3cccs3)[C@@H]3COC[C@H]23)cs1,-3.05%
10,Cc1cccc(CN2C[C@H](OCc3csc(C)n3)[C@H]3COC[C@H]32)n1,-3.75%
11,c1cc(CN2CCc3ncc(CN4CCCCC4)n3CC2)cs1,19.1%
12,COCc1nn(C(C)C)c2c1CCN(Cc1ccccn1)C2,-3.77%
13,O=C(c1cccnc1)N1CCC[C@]2(C[C@H](Oc3ncccc3F)CO2)C1,0.397%
14,CN1Cc2cnn(CC3CCCC3)c2C(COCC2CC2)C1 (stereo unspecified),-1.16%
15,CN1CC(=O)N(c2cccc(F)c2)CC12CCN(Cc1cnn(C)c1)C2 (stereo unspecified),4.08%
16,COCCN1C[C@@H]2[C@@H](OC)CCN(Cc3ccco3)[C@@H]2C1,-3.76%
17,Cc1nnc(N2CCCC3(CN(Cc4cnn(C)c4)CCO3)C2)o1 (stereo unspecified),-5.09%
18,Cc1ccc(CN2Cc3c(C(=O)N4CCN(C)CC4)nn(C)c3C2)s1,-3.87%
19,COCCN1C[C@@H]2[C@@H](OC)CCN(Cc3ccncc3)[C@@H]2C1,-0.354%
